Test results as given in PubChem BioAssay (NCI).
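Results reflect a 48-hour exposure of cells in 96-well plates to compound at five concentrations. The concentration for 50% growth inhibition is given as GI50. The concentration for full growth arrest is given as TGI.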

Tests used:
Assay in all cases: NCI tumour cell line growth inhibition, 48 h
[1] = system: MALME-3M melanoma
[2] = system: HOP-92 NSCLC
[3] = system: HL-60(TB) leukemia
[4] = system: UACC-62 melanoma
[5] = system: MOLT-4 leukemia
[6] = system: EKVX NSCLC
[7] = system: HCC-2998 colon
[8] = system: 786-0 renal
[9] = system: OVCAR-8 ovarian

Row | SMILES | TGI [1] [µM] | TGI [2] [µM] | TGI [3] [µM] | TGI [4] [µM] | TGI [5] [µM] | TGI [6] [µM] | TGI [7] [µM] | TGI [8] [µM] | TGI [9] [µM] | GI50 [1] [µM] | GI50 [2] [µM] | GI50 [4] [µM] | GI50 [6] [µM] | GI50 [7] [µM] | GI50 [8] [µM] | GI50 [9] [µM] | GI50 [3] [µM] | GI50 [5] [µM]
1 | CC1S(=O)(=O)OCCOS1(=O)=O | > 100 | > 100 | 87.1 | > 83.5 | > 100 | > 100 | > 100 | > 100 | > 100 | – | – | – | – | – | – | – | – | –
2 | NNC(=O)CCC(=O)NC1C2CC3CC(C2)CC1C3 (configuration not stated) | > 100 | > 100 | > 100 | > 100 | > 100 | – | > 100 | > 100 | > 100 | – | – | – | – | – | – | – | – | –
3 | COc1ccc(NC(=O)c2cc(OC)c(OC)c(OC)c2)cc1 | 97.7 | > 100 | 68 | > 100 | > 100 | > 100 | > 100 | > 100 | > 100 | – | – | – | – | – | – | – | – | –
4 | CC(=O)OCC1OC(n2ccc(=O)[nH]c2=O)C(OC(C)=O)C1OC(C)=O (configuration not stated) | > 100 | > 100 | – | > 100 | – | > 100 | > 100 | > 100 | > 100 | > 100 | > 100 | > 100 | > 100 | > 100 | > 100 | > 100 | – | –
5 | CCCCCCCCCCCCCC(=O)CBr | 23.6 | 6.43 | 3.08 | 17.9 | 2.9 | 39.9 | 32.1 | 11.3 | 35.6 | – | – | – | – | – | – | – | – | –
6 | Cn1nc(-c2ccccc2)c(C(=O)/C=C/c2ccccc2)c(N2CCOCC2)c1=O | – | 27.8 | 32.3 | 52.9 | 49.4 | – | – | 32.4 | > 100 | – | – | – | – | – | – | – | – | –
7 | Clc1nc(Cl)c2ncn(Cc3ccc(COc4cccc(OCc5ccc(Cn6cnc7c(Cl)nc(Cl)nc76)cc5)c4)cc3)c2n1 | > 100 | > 100 | 34.3 | > 100 | > 100 | > 100 | 35.8 | > 100 | > 100 | 73.1 | 36.2 | 34.7 | 91.4 | 17.9 | 36.2 | 33.6 | 13.5 | 8.6
8 | CC(=O)[O-].CC(=O)[O-].[NH2-].[Pt+2].c1ccc2cnccc2c1 | > 100 | 90.6 | 87.5 | > 100 | 27.3 | – | > 100 | > 100 | 21.7 | 12.9 | 16.2 | 30.3 | – | > 100 | 37.9 | 3.72 | 9.62 | 1.4
9 | C[C@@H]1COCCN1c1cc(C2(S(C)(=N)=O)CC2)nc(-c2ccnc3[nH]ccc23)n1 (some centres not stated) | 34 | 31.6 | > 100 | 11 | 49.4 | – | > 100 | 96.8 | 58.5 | 5.55 | 2.49 | 2.01 | – | 2.39 | 1.25 | 5.41 | 4 | 2.35
10 | COc1nc2nccc-2c2occn12 | > 100 | > 100 | – | > 100 | > 100 | > 100 | > 100 | > 100 | > 100 | – | – | – | – | – | – | – | – | –
11 | CC(=O)Oc1ccc(O)c(O)c1C/C=C(\C)CC/C=C(\C)CC/C=C(\C)CCC=C(C)C | 0.782 | 0.886 | 4.11 | – | – | 3.81 | 2.26 | 2.83 | 1.79 | – | – | – | – | – | – | – | – | –
12 | NC(C(=O)[O-])C(=O)[O-].NC1CCCCC1N.[Pt+4] | 2.92 | – | > 100 | 54.5 | > 100 | – | – | > 100 | > 100 | 0.294 | – | 2.39 | – | – | 5.79 | > 100 | 5.28 | 6.42
13 | COc1ccc(O)c(C#N)c1C#N | > 100 | – | > 100 | > 100 | > 100 | > 100 | > 100 | > 100 | > 100 | – | – | – | – | – | – | – | – | –
14 | CN(C)CCOc1ccc2c(c1)C/C(=C/c1ncc([N+](=O)[O-])n1C)C2=O | 5.23 | 5.77 | 71.7 | 4.97 | > 22.6 | 18 | – | 26.4 | 8.01 | – | – | – | – | – | – | – | – | –
15 | CCc1cc(O)c(Cl)c(C)c1Cl | 42.7 | 33.7 | > 100 | 35.1 | – | 33.7 | 32.7 | 30.8 | 40.6 | – | – | – | – | – | – | – | – | –
16 | S=c1[nH]c2ccc(Br)cc2c(=S)n1-c1ccccc1 | 32.1 | 78.5 | – | 32.3 | – | > 100 | 40.8 | 96.8 | > 100 | – | – | – | – | – | – | – | – | –
17 | COc1cccc(C(=O)C2C(=O)N(C)CCc3ccccc32)c1OC (configuration not stated) | > 100 | > 100 | > 100 | > 100 | > 100 | – | – | > 100 | > 100 | – | – | – | – | – | – | – | – | –
18 | COc1cc(CNc2ccc(C(C)C)cc2)cc(OC)c1OC | 45.6 | 50.2 | – | 33 | 73 | > 100 | – | 30.2 | 73.4 | – | – | – | – | – | – | – | – | –
